Where a SMILES comes first, the peptide text is derived from it. [ ]: non-standard residue; d: D form. Phe(ol) = N[C@H](CO)Cc1ccccc1; Aib = CC(C)(N)C(=O)O
Tests used:
Neurospora crassa [1] = assay: Comparative plate diffusion test with membrane-modifying peptide antibiotics (Example 5 (2)); type: cell-based; conditions: 10 μg/plate; in words
Procedure: (§1) Respectively, 10 μg of the corresponding antibiotics is pipetted in the form of a methanolic solution on the filter plates and, after drying, placed on a nutrient substrate inoculated with Neurospora crassa spores.
(2) In the same manner, various membrane-modifying peptide antibiotics are comparison-tested with herbicolin A:
Trichotoxin A 40, Suzukazillin, Alamethicin F 50, and herbicolin A, respectively, 10 μg/plate.

Neurospora crassa [2] = assay: Comparative plate diffusion test with other conventional antifungal substances (Example 5 (1)); type: cell-based
Procedure: as §1

`CC(=O)NC(C)(C)C(=O)N1CCC[C@H]1C(=O)NC(C)(C)C(=O)N[C@@H](C)C(=O)NC(C)(C)C(=O)N[C@@H](C)C(=O)N[C@@H](CCC(N)=O)C(=O)NC(C)(C)C(=O)N[C@H](C(=O)NC(C)(C)C(=O)NCC(=O)N[C@@H](CC(C)C)C(=O)NC(C)(C)C(=O)N1CCC[C@H]1C(=O)N[C@H](C(=O)NC(C)(C)C(=O)NC(C)(C)C(=O)N[C@@H](CCC(=O)O)C(=O)N[C@@H](CCC(N)=O)C(=O)N[C@H](CO)Cc1ccccc1)C(C)C)C(C)C` [Alamethicin] (Ac-[Aib]P[Aib]A[Aib]AQ[Aib]V[Aib]GL[Aib]PV[Aib][Aib]EQ[Phe(ol)]) was tested, and the inhibition zone (Neurospora crassa [1]) was “only a weak inhibition zone”.

In the case of `C[C@@H]1[C@H](O)[C@@H](C)/C=C/C=C/C=C/C=C/C=C/C=C/C=C/[C@H](O[C@@H]2O[C@H](C)[C@@H](O)[C@H](N)[C@@H]2O)C[C@@H]2O[C@](O)(C[C@@H](O)C[C@@H](O)[C@H](O)CC[C@@H](O)C[C@@H](O)CC(=O)O[C@H]1C)C[C@H](O)[C@H]2C(=O)O` [amphotericin], the zone of inhibition at 10 µg/disc (Neurospora crassa [2]; Neurospora crassa, 18 h, read-out: inhibition zone) was about 10 mm.

With `COC1=CC(=O)C[C@@H](C)[C@]12Oc1c(Cl)c(OC)cc(OC)c1C2=O` [griseofulvin] the inhibition zone (Neurospora crassa [2]; 10 μg on filter plate, 18 hours, 27° C.) was “no inhibition zone”.

Source: patent publication US4338302A, “Herbicolin and microbiological method for the preparation thereof” (priority 1979, dated 1982)
